Experimental data: patent publication US20080255055A1, “Use of Derivatives of Dipeptides for the Manufacture of a Medicament for the Treamtent of Microbial Infections” (NEOBIOTICS AB, priority 2004, published 2008)
Converted amounts (≈) assume the structure as drawn. Non-standard residues stand in square brackets, D forms with d. dPhg = N[C@@H](C(=O)O)c1ccccc1; Phg = N[C@H](C(=O)O)c1ccccc1; code Z = not defined here; Orn = NCCC[C@H](N)C(=O)O; Mpa = O=C(O)CCS

How the values were obtained:
[1] = system: S. aureus; experiment: MIC by broth dilution; format: cell-based; settings: growth media without DMSO, solubility problems; true MIC might be lower
Method: (§1) The in vitro antibacterial activity of drugs is commonly estimated by testing their minimal inhibitory (MIC) and bactericidal (MBC) concentrations.
(§2) MIC/MBC determinations were performed by broth dilution according to established procedures, well known for a person skilled in the art.

[2] = system: GAS; experiment: MIC by broth dilution; format: cell-based, group A Streptococci; settings: growth media without DMSO, solubility problems; true MIC might be lower
Method: as §1, §2

[3] = system: HSV-1 F; experiment: Virus inhibition analysis and plaque counting test in GMK AH 1 cells; format: cell-based, Herpes Simplex Virus; settings: 10 PFU/cell, 48 hours, Cp1 0.4 mM in 1% DMSO, Acyclovir 1.0 mM
[4] = system: poliovirus type 1; format: cell-based; settings: GMK AH 1 cells, 1 PFU/cell, 48 hours; Cp1 0.4 mM in 1% DMSO
[5] = system: Aspergillus niger ATCC 16404; experiment: Antifungal MIC in Sabouraud broth; format: cell-based; settings: 25° C., 7 days
Method: (§3) The minimal inhibitory concentration (MIC) was determined using a method with Sabouraud broth (Becton Dickinson) and an initial inoculum 10^3-10^4 cfu/ml. Polypropylene 96-well plates (Nunc) were incubated at 25° C. for 48 h (for Candida albicans ATCC 10231) or 7 days (for Aspergillus niger ATCC 16404). The MIC was taken as the lowest drug concentration at which noticeable growth was inhibited. The experiments were performed in duplicate.

[6] = system: Candida albicans ATCC 10231; experiment: Antifungal MIC in Sabouraud broth; format: cell-based; settings: 25° C., 48 h
Method: as §3

[7] = system: labial herpes; experiment: Topical application to beginning labial herpes outbreak; format: in vivo; settings: Cp1 in softening cream, 0.2 ml solution (0.1 g/l) on the lip of a person; performed twice
[8] = Solubility; format: physicochemical
[9] = system: cysteine proteases; experiment: Protease inhibitory activity; format: biochemical
[10] = system: lethal strept challenge; experiment: Protection against lethal strept challenge; format: in vivo; settings: mouse
[11] = system: Staphylococci incl. multi-resistant MRSA; experiment: Agar well diffusion; settings: for antibacterial effect, Staphylococci incl. multi-resistant MRSA: agar well diffusion, 40 ul of 1 mg/ml in DMSO; for growth inhibition of approximately 100 strain of MRSA: clinical isolates, several with additional antibiotic resistance markers
[12] = system: CNS incl. resistant and multiresistant MRSE; experiment: Agar well diffusion; settings: 40 ul of 1 mg/ml in DMSO
[13] = system: Streptococcus: group B; experiment: Agar well diffusion; settings: 40 ul of 1 mg/ml in DMSO
[14] = system: Streptococcus: group C; experiment: Agar well diffusion; settings: 40 ul of 1 mg/ml in DMSO
[15] = system: Streptococcus: group G; experiment: Agar well diffusion; settings: 40 ul of 1 mg/ml in DMSO
[16] = system: Streptococcus: group A; experiment: Agar well diffusion; settings: 40 ul of 1 mg/ml in DMSO
[17] = system: L. monocytogenes; experiment: Agar well diffusion; settings: 40 ul of 1 mg/ml in DMSO
[18] = system: S. pneumoniae; experiment: Agar well diffusion; settings: 40 ul of 1 mg/ml in DMSO
[19] = system: E. coli and other Gram-negatives; experiment: Agar well diffusion; settings: for antibacterial effect, E. coli and other Gram-negatives: agar well diffusion, 40 ul of 1 mg/ml in DMSO
[20] = system: α-haemolytic Streptococci; experiment: Agar well diffusion; settings: 40 ul of 1 mg/ml in DMSO
[21] = system: bacteria; experiment: Anti-bacterial activity (tables of particularly interesting compounds); format: cell-based; parameters: key: + indicates that the compound show effects

With CC(C)CC(NC(=O)C(CCCN=C(N)N)NC(=O)OCc1ccccc1)C(=O)N[C@H](CNC(=O)/C=C/c1ccccc1)C(C)C (stereo in doubt) [Cp1, (2S)-2-[(N^α-Benzyloxycarbonyl-arginyl-leucyl)-amino]-1-trans-cinnamoylamino-3-methylbutane] the “MIC for S. aureus” value [1] was “approximately 16 mg/L”, the “MIC for GAS” value [2] was “approximately 16 mg/L” and the HSV-1 plaques [3] was 1.0 × 10^3. For the same compound, the Polio plaques [4] was 2.6 × 10^5, the “MIC Aspergillus niger ATCC 16404” value [5] was 64 µg/mL (≈ 101 µM) and the “MIC Candida albicans ATCC 10231” value [6] was 32 µg/ml. The “time after which symptoms of beginning labial herpes outbreak was gone” value [7] was “Cp1 was added to a softening cream and 0.2 ml solution (0.1 g/l) was applied to an area of a beginning labial herpes outbreak on the lip of a person. After 3-4 hours the symptoms was gone. The experiment was performed twice”, the “solubility in DMSO” value ([8]; DMSO) was “soluble in DMSO to high concentrations” and the solubility in water ([8]; water) was “less soluble in water”. The protease inhibitory activity [9] was “devoid of any detectable protease inhibitory activity”, the “protective capacity for lethal strept challenge” value [10] was “strong protective capacity” and the “antibacterial effect, Staphylococci incl. multi-resistant MRSA” value [11] was “+”. For the same compound, the “growth inhibition of approximately 100 strain of MRSA” value [11] was “strongly inhibited in their growth”, the “antibacterial effect, CNS incl. resistant and multiresistant MRSE” value [12] was “+” and the “antibacterial effect, Streptococcus: group B” value [13] was “+”. For the same compound, the “antibacterial effect, Streptococcus: group C” value [14] was “+”, the “antibacterial effect, Streptococcus: group G” value [15] was “+” and the “antibacterial effect, Streptococcus: group A” value [16] was “+”. For the same compound, the “antibacterial effect, L. monocytogenes” value [17] was “+”, the “antibacterial effect, S. pneumoniae” value [18] was “+” and the “activity against gram-negative bacteria” value [19] was “low or no activity”. The “antibacterial effect, E. coli and other Gram-negatives” value [19] was “−” and the “antibacterial effect, α-haemolytic Streptococci” value [20] was “−”.

In the case of CC(=O)NC(Cc1ccccc1)C(=O)NCC(NC(=O)C(CC(C)C)NC(=O)C(CCCNC(=N)N)NC(=O)OCc1ccccc1)C(C)C (stereo not shown) [[AcPhe^5]Cp1], the “MIC Aspergillus niger ATCC 16404” value [5] is reported as 256 µg/mL (≈ 368 µM), the “MIC Candida albicans ATCC 10231” value [6] is reported as 512 µg/mL (≈ 737 µM) and the “antibacterial effect, Staphylococci incl. multi-resistant MRSA” value [11] is reported as “+”. The “growth inhibition of approximately 100 strain of MRSA” value [11] was “strongly inhibited in their growth”, the “antibacterial effect, CNS incl. resistant and multiresistant MRSE” value [12] was “+” and the “antibacterial effect, Streptococcus: group B” value [13] was “+”. For the same compound, the “antibacterial effect, Streptococcus: group C” value [14] was “+”, the “antibacterial effect, Streptococcus: group G” value [15] was “+” and the “antibacterial effect, Streptococcus: group A” value [16] was “+”. The “antibacterial effect, L. monocytogenes” value [17] was “+”, the “antibacterial effect, S. pneumoniae” value [18] was “+” and the “antibacterial effect, E. coli and other Gram-negatives” value [19] was “−”. For the same compound, the “antibacterial effect, α-haemolytic Streptococci” value [20] was “−”.

In the case of “Mpa-Phe-Arg-Leu-Val-Phe-Cys-NH2 ([Mpa]FRLVFC-NH2; cysteine pairing not given here)”, the “Activity Anti-bacterial” value [21] is reported as “+”.

In the case of “Z-Arg-Leu-Val-Phe-NH2 ({code Z}-RLVF-NH2; reading uncertain; also: printed as Z-Arg-Leu-Val-Phe-NH2)”, the “Activity Anti-bacterial” value [21] is reported as “+”.

For Z-Arg-Leu-Val-cinnamoylamide, the “Activity Anti-bacterial” value [21] was “+”.

For cyclo(FRLVF[Orn]LV), the “Activity Anti-bacterial” value [21] was “+”.

With cyclo(F[Orn]LVF[Orn]LV) the “Activity Anti-bacterial” value [21] was “+”.

In the case of “cyclo(Phe-Arg-Leu-Val-Phe-Arg-Leu-Val) (FRLVFRLV; cyclic; printed: Phe-Arg-Leu-Val-Phe-Arg-Leu-Val)”, the “Activity Anti-bacterial” value [21] is reported as “+”.

With “cyclo(Tyr-Arg-Leu-Val-Tyr-Arg-Leu-Val) (YRLVYRLV; cyclic; printed: Tyr-Arg-Leu-Val-Tyr-Arg-Leu-Val)” the “Activity Anti-bacterial” value [21] was “+”.

For cyclo([Phg]RLV[Phg]RLV), the “Activity Anti-bacterial” value [21] was “+”.

For cyclo([dPhg]RLV[dPhg]RLV), the “Activity Anti-bacterial” value [21] was “+”.

In the case of cyclo([dY]RLV[dY]RLV), the “Activity Anti-bacterial” value [21] is reported as “+”.
